# “Also recorded” adds a separate entry of the source. Where two headings read alike, the source gives them in different places.
# Columns and labels:
# [1] = test system: Ki-67, β-catenin, np β-catenin, Cyclin D1, c-Myc, p-ERK1/2, N-cadherin, E-cadherin; assay: Immunohistochemistry of tumor-bearing lung sections; settings: 4 mg/kg, six cycles, score I × A, n = 5, control scored 8.3
# Procedure: All samples were assayed in triplicate.
# Construct a lung metastasis model of melanoma
# The lung metastasis model o f melanoma was constructed as follows: B16F10 cells (5 × 10^5 cells per
# 100 µL) were transplanted into healthy C57BL/6 mice by intravenous injection at 5 -6 weeks of age.
# After 3 days, the mice were randomly divided into the PBS control group, CA group (4 mg/kg),
# HBBplus group (4 mg/kg), HBBplus@CA group (4 mg/ kg), HBBplus + CA group (4 mg/ kg) tail-vein
# injected, every other day, summed six cycles. The experiment was terminated, and the mice were
# euthanized. For histological examination, the tumor, liver, k idney, heart, spleen , and lung tissues
# were fixed with formaldehyde, dehydrated, sliced into 4 μm sections, and subjected to H&E or
# immunohistochemical staining.
# H&E and immunohistochemistry (IHC) staining
# Tumor-bearing lungs and primary organ tissues were dissected and immersed in formalin solution.
# Then they were paraffin-embedded, sectioned with a 4 μm thick. Nextly, the sections were stained
# with hematoxylin-eosin (H&E) according to standard histopathological techniques. Besides, under
# conventional immunohistochemical staining, the expression of Ki -67 (Proteintech, USA; 1: 400),
# β-catenin (Thermo Fisher, China; 1: 2000), np β-catenin (Cell Signaling Technology, USA; 1: 100), […]
# 1: 500) in tumor-bearing lungs sections were detected. […]
# [2] = test system: B16F10 pulmonary metastasis of melanoma; assay: Lung metastasis model of melanoma; type: in vivo; settings: 5×10^5 B16F10 cells i.v., 4 mg/kg every other day, six cycles, day 24, n = 5, mean ± s.d.; PBS group 94 ± 41
# B16F10 cells [3] = assay: Cell viability, Alamar blue
# Procedure: (§9) To explore the antitumor properties of HBB^plus@CA at the cellular level, we measured the viability of B16F10 cells after treatment with HBB^plus@CA.
# (§10) Mouse melanoma cell line B16F10, mouse macrophage cell line RAW 264.7, and human leukemic
# (§11) T-cell line Jurkat were obtained from the Chinese Academy of Science Cell Bank (Shanghai, China).
# (§12) B16F10 and RAW 264.7 cells were maintained in DMEM medium, Jurkat was cultured in RPMI-
# (§13) 1640 medium, and the above mediums were supplemented with 10% FBS, 100 U/mL penicillin,
# (§14) and 100 μg/mL streptomycin. All cells were maintained at 37°C in an atmosphere of 5% CO2.
# (§15) Melanoma cells B16F10 were inoculated uniformly in 96 empty plates according to 2000 cells.
# (§16) After 24 h, different gradient concentrations of HBB plus@CA or CA, HBB, or RGDSP-X were
# (§17) intervened at 37°C in an atmosphere of 5% CO 2 for 72 h. The in vitro cell viability was measured
# (§18) using a standard Alamar blue (Thermo Fisher Scientific, China) assay in the B16F10 cell s.
# B16F10 cells [4] = assay: Cell clone formation assay; type: cell-based, mouse; settings: 7 days of drug treatment
# B16F10 cells [5] = test system: B16F10 cells
# Procedure: as §9, §10, §11, §12, §13, §14, §15, §16, §17, §18
# [6] = test system: β-catenin, np-β-catenin, c-Myc; assay: Western blot, Wnt/β-catenin pathway proteins; type: cell-based, mouse; settings: B16F10 cells, 24 h
# [7] = Acute toxicity test in vivo; settings: healthy C57BL/6 mice; for body weight: every other day, six cycles
# B16F10 cells [8] = assay: Scratch wound healing assay; type: cell-based, mouse; settings: 60 μM, 24 h, 1% FBS; for migration rate: Image J, triplicate
# Procedure: (§1) As a next step, we tested the ability of supramolecular peptides to prevent tumor cell migration and invasion. […] Meanwhile, a scratch wound was harvested as part of the migration assay, and the healing process was observed. Based on a digital image, the areas of scratching without cells immediately following scratching and those of scratching without cells after the assay was calculated. […] We observed the same results in the transwell migration assay. Furthermore, tumor cells' invasive abilities play a critical role in metastasis. Using a transwell invasion assay (Figure 4G), we assessed the ability of HBB^plus@CA to inhibit tumor cell invasion.
# (§2) Scratch wound healing assay […]
# (§3) monolayer with a pipette tip (100 μL). The monolayer membrane was washed with PBS three times, […]
# (§4) Detection Kit (BD Falco, China). […]
# (§5) for 24 h at a concentration of 40 μM.
# (§6) FITC-labeled HBB, HBBplus, and […]
# (§7) it for 10 min. […] DAPI (Sigma-Aldrich,
# (§8) Finally, a super-resolution confocal microscope was used to observe the cell uptake situation.
# [9] = Self-assembly into nanospheres observed by TEM; type: physicochemical; settings: peptide alone without CA
# Source text: The hydrophobic tails of HBB^plus interact and gather together, forming a hydrophobic core. At the same time, the hydrophilic head interacts with water molecules to wrap around the core, forming a stable micelle structure. The hydrophobic drug CA will be encapsulated in the hydrophobic area of the micelles during micellar assembly. CA is immobilized inside the micelles by interacting with the hydrophobic tails of the micelles (hydrophobic interactions and hydrogen bonding) (Figure 1D). We used the GROMACS 2018.3 software package and combined it with the MARTINI coarse-grained model (version 2.2) to conduct dynamics simulations on a system composed of 24× HBB^plus peptide molecules and 100× CA molecules in an aqueous solution during 5000 ns. […] To verify it, CA was mixed with HBB^plus in mass ratios ranging from 4:1 to 0.25:1. […] Furthermore, there was a strong positive correlation between the concentration of CA and particle size (Figure 1E). […]
# Zetasizer Nano ZS system). The surface chemical structure of modified nanocrystals was evaluated […]
# The in vitro cell viability was measured […]
# B16F10 cells [10] = assay: Transwell migration and invasion assays; type: cell-based, mouse; settings: 30 μM, 24h-48h
# Procedure: as §1
# performed on a Talos F200X.
# The hydrodynamic size distribution (1
# Zetasizer Nano ZS system). The surface chemical structure of modified nanocrystals was evaluated
# (Shimadzu 3000 spectrophotometer). The structural identification of modified nanocrystals was
# and 100 μg/mL streptomycin.
# The in vitro cell viability was measured
# containing 15% FBS medium for 24h -48h. Cells that migrated or invaded across the membrane
# B16F10 lung metastasis = assay: Ex vivo fluorescence biodistribution in mice with pulmonary metastatic melanoma; settings: Cy5-SE labelled, i.v. 200 μL (1 mg/mL), tumor-bearing C57BL/6 mice, organs at 12 h and 24 h
# p-ERK1/2 = assay: Western blot, p-ERK1/2; type: cell-based, mouse; settings: B16F10 cells
# B16F10 cells [11] = assay: Cell apoptosis by flow cytometry (FITC Annexin V/PI); type: cell-based, mouse; settings: 40 μM, 24 h
# Procedure: as §2, §3, §4, §5, §6, §7, §8
compound,measurement,setting,value
"CC(C)c1cc2c(c(O)c1O)[C@@]1(C(=O)O)CCCC(C)(C)[C@@H]1CC2 [CA, carnosic acid]",Ki-67 expression score (IHC),[1],5.7
same,number of metastatic lung foci,[2],37 ± 10 per lung
same,IC50,"B16F10 cells [3]; Mus musculus, B16-F10, 72 h, read-out: IC50 (cell viability)",29.2 ± 4.68 µM
same,clone formation,B16F10 cells [4],significantly reduced the number of clones
same,cytotoxicity / antiproliferative activity,B16F10 cells [5],concentration-dependent cytotoxicity
same,"β-catenin, np-β-catenin and c-Myc protein expression",[6],significantly downregulated
same,"renal function tests (urea nitrogen, creatinine)",[7]; 4-40 mg/kg,did not cause severe nephrotoxicity
same,"RBC, WBC, PLT, HGB, GRAN, Mon, Lymph in blood","[7]; 4-40 mg/kg, n = 3/group, versus controls",neither HBB^plus@CA nor CA affected
same,body weight,[7]; 5× doses (20 mg/kg),notable weight loss
same,ALT and AST (liver function),[7]; 10× doses (40 mg/kg),elevations of ALT and AST
same,body weight,[7]; 10× doses (40 mg/kg),notable weight loss
same,H&E staining of lung tissue,[7]; low-dose and high-dose groups,inflammatory cell infiltration
same,"TNF-α, IFN-γ and EPO levels of peripheral blood","[7]; up to high dose, ELISA, n = 3/group",did not significantly increase
same,migration rate,B16F10 cells [8],~ 27%
RGDSPENPRLLGNVLVCVLA [HBB^plus],self-assembly into nanospheres,[9],incapable of undergoing such a process
same,Ki-67 expression score (IHC),[1],6.2
same,transwell migration and invasion,B16F10 cells [10],inhibited the migration
same,number of metastatic lung foci,[2],32 ± 12 per lung
same,cytotoxicity / antiproliferative activity,"B16F10 cells [3]; B16F10 cells, 72 h, Alamar blue",more potent antiproliferative activity
same,clone formation,B16F10 cells [4],more potent antiproliferative activity
same,tumor accumulation (biodistribution),B16F10 lung metastasis,superior tumor accumulation compared to HBB
same,level of p-ERK1/2,p-ERK1/2,reduced the level; also recorded: significantly down-regulated
same,migration in scratch assay,B16F10 cells [8],inhibited the migration
same,migration rate,B16F10 cells [8],~ 36%
same,apoptosis of tumor cells,B16F10 cells [11],significantly effective in increasing the apoptosis

# From publication PMC10334834, “A de novo dual-targeting supramolecular self-assembly peptide against pulmonary metastasis of melanoma” (Theranostics, 2023)
